For experiment [1], the system named is TNFα. Kind of experiment: Inhibition of LPS-induced TNFα in normal human PBMC (ELISA). Type of experiment: cell-based. Conditions: for TNFa: LPS-stimulated PBMC supernatant; for TNFa Inhibition Ratio (%): LPS-stimulated PBMC. An excerpt:
(§1) Materials: • 1) Cell: PBMC (Peripheral Blood […]) • 2) Drugs: Sophora flavescens flavonoids extract and Kurarinone (Exp. 1) • 3) Positive control: Dexamethason (DEX) • 4) Reagents: Ficoll-Paque Plus (Amersham Bioscience), LPS and dexamethason (CalBiochem.), TNFa ELISA (Enzyme Linked Immunosorbent Assay) Kit and IL1-β ELISA Kit (Jingmei Bioengineer Technology), DMSO (Dimethylsulfoxide) (Sigma)
(§2) a. PBMC cells are isolated from fresh blood by using of Ficoll-Paque Plus reagent according to the protocol that the manufacturer recommends. Cells are suspended in RPMI 1640 media containing 10% FBS. 100 μl of 1×10^5 cells/ml is seeded in each well of 96 well plate, 1×10^4 cells total in each well and three wells for each reaction.
(§3) b. Samples are added into cells (final concentrations are 10, 30, 100 ug/ml, respectively. Sample volume that is added into each well is 10 μl). Final concentration of the positive control, dexamethason is 10 μM. 10 μl of media is added into the cells as a negative control. Then the plate is incubated in 37° C., 5% CO2 incubator for 15 minutes, 10 μl of 100 μg/ml LPS was added to each well except for negative controls. Incubate in 37° C., 5% CO2 incubator overnight.
(§4) c. Spin the plate at 1000 rpm for 15 minutes, transfer supernatant from each well to a new plate, measure the concentrations of TNFα and IL1-β by using assay kits. [formula]

Experiment [2] has as its system IL1-β. The experiment is described as follows: Inhibition of LPS-induced IL1-β in normal human PBMC (ELISA). The conditions noted are these: for IL-1β: LPS-stimulated PBMC supernatant; for IL-1βInhibition Ratio (%): LPS-stimulated PBMC. Type of experiment: cell-based.
Excerpt: as §1, §2, §3, §4

With `C[C@@H]1C[C@H]2[C@@H]3CCC4=CC(=O)C=C[C@]4(C)[C@@]3(F)[C@@H](O)C[C@]2(C)[C@@]1(O)C(=O)CO` [DEX, Dexamethason, reference compound], in experiment [1] (positive control 10 uM), the “TNFa” value is 120.9 ± 3.4 pg/mL and the “TNFa Inhibition Ratio (%)” value came out at 61.3 ± 1.9%. In addition, in experiment [2] (positive control 10 uM), the “IL-1β” value was determined as 275.6 ± 5.3 pg/mL and the “IL-1βInhibition Ratio (%)” value is 72.9 ± 1.6%.
For the molecule `C=C(C)[C@H](CC=C(C)C)Cc1c(O)cc(OC)c2c1O[C@H](c1ccc(O)cc1O)CC2=O` [Kurarinone, 4H-1-Benzopyran-4-one, 2-(2,4-dihydroxyphenyl)-2,3-dihydro-7-hydroxy-5-methoxy-8-[5-methyl-2-(1-methylethenyl)-4-hexenyl]-], the “TNFa” value turned out to be 92.2 ± 2.7 pg/mL in experiment [1] (sample 10 μg/ml), 39.5 ± 1.5 pg/mL in experiment [1] (sample 30 μg/ml) and 2.1 ± 0.3 pg/mL in experiment [1] (sample 100 μg/ml). The “TNFa Inhibition Ratio (%)” value in experiment [1] (sample 10 μg/ml) worked out at 52.5 ± 4.2%; in experiment [1] (sample 30 μg/ml), 78.5 ± 4.1%; in experiment [1] (sample 100 μg/ml), 98.8 ± 2.1%. The “IL-1β” value in experiment [2] (sample 10 μg/ml) was 129.8 ± 8.4 pg/mL; in experiment [2] (sample 30 μg/ml) it was 80.5 ± 3.7 pg/mL; in experiment [2] (sample 100 μg/ml), 3.1 ± 0.3 pg/mL. Also, the entries for the “IL-1βInhibition Ratio (%)” value in experiment [2] (sample 10 μg/ml), in experiment [2] (sample 30 μg/ml) and in experiment [2] (sample 100 μg/ml) were 62.4 ± 4.2%, 75.0 ± 4.1% and 99.0 ± 0.5%, respectively.
